Assay results published in the supplement of paper PMC13207355.

How the values were obtained:
Settings in all cases: exposure time: 72 h
E21 [1] = patient-derived glioblastoma stem cells of mesenchymal subtype; test: phenotypic distance (Euclidean, principal components) from DMSO controls (arbitrary units); higher = stronger morphological change
E13 [2] = patient-derived glioblastoma stem cells of classical subtype; test: as above
E28 [3] = patient-derived glioblastoma stem cells of classical subtype; test: as above
E34 [4] = patient-derived glioblastoma stem cells of proneural subtype; test: as above
E31 [5] = patient-derived glioblastoma stem cells of proneural subtype; test: as above
E57 [6] = patient-derived glioblastoma stem cells of mesenchymal subtype; test: as above
FT3469 [7] = normal neural stem cell line; test: as above
E21 [8] = test: surviving fraction (nuclei count normalised to DMSO); higher = more cells surviving (less toxic)
E13 [9] = test: as above
E28 [10] = test: as above
E34 [11] = test: as above
E31 [12] = test: as above
E57 [13] = test: as above
FT3469 [14] = test: as above
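Wherever phenotypic distance (Euclidean, principal components) from DMSO controls is given: cell Painting imaging in 384-well plates, CellProfiler features reduced to at least 20 principal components, Euclidean distance versus same-plate DMSO vehicle wells (0.1% v/v), median over six images per well.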
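Wherever surviving fraction (nuclei count normalised to DMSO) is given: nuclei counted by high-content imaging of Hoechst-stained cells in laminin-coated 384-well plates, relative to 0.1% DMSO vehicle wells, with staurosporine as cell-death control.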

O=[N+]([O-])c1ccc2c(c1)S(=O)(=O)C=C2 [Stattic]
Settings	phenotypic distance	surviving fraction
E13 [2], 4.11523 nM	0.979	–
E13 [2], 12.34567901 nM	0.957	–
E13 [2], 37.037 nM	0.849	–
E13 [2], 111.1111111 nM	1.68	–
E13 [2], 333.333 nM	3.33	–
E13 [2], 1000 nM	8.57	–
E13 [2], 3000 nM	12.1	–
E13 [9], 4.11523 nM	–	0.862
E13 [9], 12.34567901 nM	–	0.789
E13 [9], 37.037 nM	–	0.891
E13 [9], 111.1111111 nM	–	0.753
E13 [9], 333.333 nM	–	0.472
E13 [9], 1000 nM	–	0.0609
E13 [9], 3000 nM	–	0.0209
E21 [1], 4.11523 nM	1.03	–
E21 [1], 12.34567901 nM	1.19	–
E21 [1], 37.037 nM	0.697	–
E21 [1], 111.1111111 nM	1.45	–
E21 [1], 333.333 nM	2.92	–
E21 [1], 1000 nM	11.2	–
E21 [1], 3000 nM	10.4	–
E21 [8], 4.11523 nM	–	0.828
E21 [8], 12.34567901 nM	–	0.855
E21 [8], 37.037 nM	–	0.849
E21 [8], 111.1111111 nM	–	0.728
E21 [8], 333.333 nM	–	0.517
E21 [8], 1000 nM	–	0.0242
E21 [8], 3000 nM	–	0.00527
E28 [3], 4.11523 nM	0.371	–
E28 [3], 12.34567901 nM	0.758	–
E28 [3], 37.037 nM	0.541	–
E28 [3], 111.1111111 nM	0.984	–
E28 [3], 333.333 nM	1.97	–
E28 [3], 1000 nM	7.45	–
E28 [3], 3000 nM	19.2	–
E28 [10], 4.11523 nM	–	1.06
E28 [10], 12.34567901 nM	–	0.809
E28 [10], 37.037 nM	–	0.932
E28 [10], 111.1111111 nM	–	0.745
E28 [10], 333.333 nM	–	0.566
E28 [10], 1000 nM	–	0.0457
E28 [10], 3000 nM	–	0.00486
E31 [5], 4.11523 nM	0.51	–
E31 [5], 12.34567901 nM	0.69	–
E31 [5], 37.037 nM	0.645	–
E31 [5], 111.1111111 nM	1.51	–
E31 [5], 333.333 nM	3.02	–
E31 [5], 1000 nM	11.5	–
E31 [5], 3000 nM	12.4	–
E31 [12], 4.11523 nM	–	0.993
E31 [12], 12.34567901 nM	–	0.809
E31 [12], 37.037 nM	–	0.852
E31 [12], 111.1111111 nM	–	0.608
E31 [12], 333.333 nM	–	0.395
E31 [12], 1000 nM	–	0.00296
E31 [12], 3000 nM	–	0.00296
E34 [4], 4.11523 nM	0.778	–
E34 [4], 12.34567901 nM	2.75	–
E34 [4], 37.037 nM	1.33	–
E34 [4], 111.1111111 nM	1.29	–
E34 [4], 333.333 nM	1.83	–
E34 [4], 1000 nM	6.7	–
E34 [4], 3000 nM	11.7	–
E34 [11], 4.11523 nM	–	0.907
E34 [11], 12.34567901 nM	–	0.804
E34 [11], 37.037 nM	–	0.719
E34 [11], 111.1111111 nM	–	0.708
E34 [11], 333.333 nM	–	0.568
E34 [11], 1000 nM	–	0.223
E34 [11], 3000 nM	–	0.00905
E57 [6], 4.11523 nM	1.16	–
E57 [6], 12.34567901 nM	1.21	–
E57 [6], 37.037 nM	0.778	–
E57 [6], 111.1111111 nM	1.69	–
E57 [6], 333.333 nM	2.66	–
E57 [6], 1000 nM	6.04	–
E57 [6], 3000 nM	6.85	–
E57 [13], 4.11523 nM	–	0.876
E57 [13], 12.34567901 nM	–	0.843
E57 [13], 37.037 nM	–	0.926
E57 [13], 111.1111111 nM	–	0.848
E57 [13], 333.333 nM	–	0.631
E57 [13], 1000 nM	–	0.166
E57 [13], 3000 nM	–	0.0847
FT3469 [7], 4.11523 nM	1.08	–
FT3469 [7], 12.34567901 nM	1.39	–
FT3469 [7], 37.037 nM	0.934	–
FT3469 [7], 111.1111111 nM	1.86	–
FT3469 [7], 333.333 nM	1.92	–
FT3469 [7], 1000 nM	8.18	–
FT3469 [7], 3000 nM	12.6	–
FT3469 [14], 4.11523 nM	–	0.815
FT3469 [14], 12.34567901 nM	–	0.831
FT3469 [14], 37.037 nM	–	0.86
FT3469 [14], 111.1111111 nM	–	0.73
FT3469 [14], 333.333 nM	–	0.627
FT3469 [14], 1000 nM	–	0.263
FT3469 [14], 3000 nM	–	0.0263
